Reference: US20240197766A1, “TREATMENT OF RNA VIRUS INFECTION WITH A CYTIDINE” (The Cleveland Clinic Foundation, priority 2021, published 2024)
Several values for one entry are separate records, joined by “and”; a condition that tells them apart may be missing. Identical values can stand only once. Entries after “also recorded” stand apart in the source; their conditions may differ. Like-named read-outs stand apart in the source and are kept apart here.

Legend:
coronavirus = assay type: cell-based; conditions: THU 24 hours at clinically relevant concentrations, human lung epithelial cells, plaque assay and QRT-PCR
[1] = test system: cytidine analog deamination; experiment: THU clinical pharmacodynamics: deamination of co-administered cytidine analogs
serum uridine levels = experiment: THU clinical pharmacodynamics: serum uridine and cytidine levels
Experimental: Volunteers (3 males; 3 females) received a single THU dose of 750 mg 7 days apart, the 1st dose in a fasted state and the 2nd after a standard FDA meal.

[2] = cited from earlier work
[3] = THU clinical pharmacokinetics, oral 750 mg in healthy volunteers; conditions: male, human, in vivo
CMV = conditions: case series of renal transplantation patients; cited from earlier work
host cell = conditions: clinically relevant concentrations, data from Xiong et al.; cited from earlier work
[4] = read-out: routine Cmax; clinical; cited from earlier work

Q: With `O=C1NC(O)CCN1[C@@H]1O[C@H](CO)[C@@H](O)[C@H]1O` (stereo partly shown) [THU, tetrahydrouridine] as the compound, how does the “coronavirus (VSV) replication” value (coronavirus) read?
A: The value was “inhibited coronavirus replication; also recorded: significantly inhibited”.

Q: And the “reduction in cytidine analog deamination” value [1]?
A: Its value is about 90%.

Q: And the “decrease of uridine availability to non-dividing cells” value (serum uridine levels; inhibition of 2 CDA-mediated uridine supply routes)?
A: Its value is at most 90%.

Q: And the serum cytidine levels (serum uridine levels; single THU dose of 750 mg)?
A: The serum cytidine levels was “increasing”.

Q: And the “decrease in serum uridine levels” value (serum uridine levels; single THU dose of 750 mg, fasted and fed states, males and females)?
A: The value was 50-80% and 50-90%.

Q: And the “reduction of uridine available for systemic salvage” value (serum uridine levels; standard, non-toxic doses)?
A: The value was “up to 90%”.

Q: And the “administered drug excreted through the kidneys within 24 h” value ([2]; renal excretion, within 24 h)?
A: Its value is “approximately 50%”.

Q: And the “elimination within 48 hours” value ([2]; within 48 hours)?
A: Its value is 100%.

Q: What about the Cmax [3] of the same compound?
A: Its Cmax is 2 µM to 8 µM and 500 ng/mL to 2000 ng/mL.

Q: What about the Tmax [3] of the same compound?
A: The Tmax was about 3 h.

Q: Which “clinical outcome of CMV infection” value (CMV) does the source give for `Cc1oncc1C(=O)Nc1ccc(C(F)(F)F)cc1` [leflunomide] here?
A: The value was “cleared virus and/or produced clinical improvement”.

Q: With `C/C(O)=C(\C#N)C(=O)Nc1ccc(C(F)(F)F)cc1` [Teriflunomide, teriflunomide] as the compound, how does the host cell cytotoxicity (host cell) read?
A: Its host cell cytotoxicity is “minimal”.

Q: What about the Cmax [4] of the same compound?
A: Its Cmax is 10 to 100 µM.
